Ends that are not written are not given here. Peptide text beside a SMILES is read from it.

Common to all, as to format: cell-based, human
Data set [1] concerns μHF. Put plainly: Cytotoxicity testing on μHF, viability by ATP (CellTiter Glo). The conditions noted are these: for Mean ATP content in μHF after 24 H treatment: N = 5 μHF, CN 1306.1; for ATP content relative to threshold (50% of negative control): 1-10-100 ng/ml, 24 h. As for the experimental part:
Cytotoxicity testing has been performed on μHF at day 3 in order to select the testing concentration of peptides for the following screening assays.
Treatments: Negative control: 1 (not treated), Positive control: FGF18 100 ng/ml, Treatments: 39 (13 peptides, 3 concentrations each: 1-10-100 ng/ml), Biological replicates: 5 μHF for each treatment, Time-point: 1 (after 24 H of treatment), Read-out parameters: Viability by ATP
The test items have been tested at 3 concentrations/each for their cytotoxicity potential after 24 h exposure on μHF. FGF18 100 ng/ml have been used as positive control. The toxicity has been evaluated by ATP release on n=5 μHF.
The μHF microtissue were reconstructed using the hanging drop method into GRAVITY^PLUS plates from InSphero (Switzerland) using fibroblasts and keratinocytes from human origin. The MTs were Transferred in GRAVITYTRAP for treatments and manipulation. Culture conditions: incubator at 37° C., 5% CO2, saturated humidity with adequate culture medium. The Fibroblast batch and keratinocytes has been tested for the absence of HIV, Hepatitis B, Hepatitis C, Mycoplasma. The maintenance medium has been tested for sterility.
The kit CellTiter Glo® (Promega) Luminescent cell Viability Assay is used for Adenosine-5- triphosphate (ATP) quantification. The assay procedures involves adding the single reagent directly to MTs cultured in medium. The cell lysis and the generation of a luminescent signal is proportional to the amount of ATP present. ATP measurements have been performed on 5 biological replicates and mean and standard deviation have been calculated. The threshold of 50% viability in comparison to negative control have been used as cut off; the max concentration possible over threshold has been used for the efficacy screening test.
For the selection of test concentrations of each peptide, the 50% ATP content in comparison with negative (not treated) control has been selected as threshold. The higher concentration over the selected threshold has been used for efficacy screening test for peptides form P1 to P9.
(Cellular ATP, detected with luciferase, serves as a proxy for viable cell number.)

Data set [2] has as its system FGF7. As to the kind of experiment: Regressive μHF efficacy screening: FGF7 gene expression by RTqPCR. The text has this: (§1) To assess the biological activity of the identified set of 13 peptides and their capability to maintain quiescence state, the Vitroscreen μHF standard model has been adapted pushing it in a regressive state (catagen-like) by the application of TGFβ1 to reduce the expression of genes linked to active growth phase (anagen) and to make the model more responsive to FGF18 as quiescence signal.
(§2) In particular, in this regressive model, the application of TGFβ1 to 72H induces a catagen-like status with the down-regulation of FGF7 anagen gene and CCND1 as proliferation marker. […]
(§3) After the selection of test concentrations of the peptides, efficacy was performed on regressing μHF (TGFβ1 treated) at day 5 in order to evaluate the further efficacy of peptides to decrease the gene expression of proliferation (CCND1) and anagen marker (FGF7). The potential down-regulation of epithelial growth regulator WNT5B has been evaluated as an optional parameter.
(§4) Treatments: Negative control: 1 (not treated), Regression inducer: TGFβ1 10 ng/ml, Positive control: FGF18 10-100 ng/ml, Treatments: 13 peptides (1 concentration each), Biological replicates: 1 biological replicates from pool of 20 μHF, Time-point: after 72H of TGFβ1 induction followed by 24H of peptide or FGF18 application, Read-out parameters: 1 Proliferation gene (CCND1) by RTqPCR, 2 anagen regulators (FGF7, WNT5B) by RTqPCR […]
A general note: In qPCR the cycle at which signal appears reflects the starting amount.

In data set [3] the test system is WNT5B. As to the kind of experiment: Regressive μHF efficacy screening: WNT5B gene expression by RTqPCR. The conditions noted are these: FGF18 100 ng/ml, after TGFβ1 10 ng/ml 72H.
Excerpt: as §1, §2, §3, §4

Data set [4] deals with regressive μHF. Put plainly: Overall efficacy in mimicking FGF18 in regressive μHF (CCND1, FGF7, WNT5B together). The conditions noted are these: FGF18 10-100 ng/ml, after TGFβ1.
Excerpt: as §1, §2
The μHF model has been used for a screening study with the aim to characterize the 13 peptides designed on the basis of FGF18 structure in order to mimic its biological function in retarding hair growth. The following test items have been evaluated after the selection of test concentration in a preliminary tox assay.
After the selection of test concentrations of the peptides, efficacy was performed on regressing μHF (TGFβ1 treated) at day 5 in order to evaluate the further efficacy of peptides to decrease the gene expression of proliferation (CCND1) and anagen marker (FGF7). The potential down-regulation of epithelial growth regulator WNT5B has been evaluated as an optional parameter. […]

Data set [5] concerns CCND1. Put plainly: Regressive μHF efficacy screening: CCND1 gene expression by RTqPCR.
Excerpt: as §1, §2, §3, §4

Where [6] appears, read: FGF18 100 ng/ml, after TGFβ1 10 ng/ml 72H.

For the compound `CC(C)C[C@H](NC(=O)[C@H](CCC(N)=O)NC(=O)[C@@H](N)CCCCN)C(=O)N[C@@H](CCCNC(=N)N)C(=O)O` [Peptide P1, KQLR] (H-KQLR-OH; N-terminus and C-terminus assumed), the results for the “Mean ATP content in μHF after 24 H treatment” value (from here on “Mean ATP content in μHF”) in data set [1] (1 ng/ml), in data set [1] (10 ng/ml) and in data set [1] (100 ng/ml) were 1876.5 nM, 2007.2 nM and 1903.1 nM, respectively.

Regarding `CC(C)C[C@H](NC(=O)[C@H](CCCNC(=N)N)NC(=O)[C@@H](N)CC(=O)O)C(=O)N[C@@H](CCCCN)C(=O)O` [Peptide P3, DRLK] (H-DRLK-OH; N-terminus and C-terminus assumed), the “Mean ATP content in μHF” value was 1026.2 nM in data set [1] (1 ng/ml), 924.8 nM in data set [1] (10 ng/ml) and 1631.2 nM in data set [1] (100 ng/ml).

Consider `C[C@@H](O)[C@H](NC(=O)[C@H](CCCCN)NC(=O)[C@@H](N)CCC(=O)O)C(=O)N[C@@H](CC(=O)O)C(=O)O` [Peptide P4, EKTD] (H-EKTD-OH; N-terminus and C-terminus assumed), for which the “Mean ATP content in μHF” value in data set [1] (1 ng/ml) was determined as 1567.7 nM; in data set [1] (10 ng/ml) it was 1715.2 nM; in data set [1] (100 ng/ml), 1597.4 nM.

Take `NCCCC[C@H](NC(=O)[C@@H](N)CCC(=O)O)C(=O)N[C@@H](CC(=O)O)C(=O)N[C@@H](CC(=O)O)C(=O)O` [Peptide P5, EKDD] (H-EKDD-OH; N-terminus and C-terminus assumed): the entries for the “Mean ATP content in μHF” value in data set [1] (1 ng/ml), in data set [1] (10 ng/ml) and in data set [1] (100 ng/ml) were 1263.3 nM, 1108.9 nM and 1255.5 nM, respectively.

For `C[C@@H](O)[C@H](NC(=O)[C@H](CCCNC(=N)N)NC(=O)[C@@H](N)CCCCN)C(=O)NCC(=O)O` [Peptide P6, KRTG] (H-KRTG-OH; N-terminus and C-terminus assumed), the “Mean ATP content in μHF” value is reported as 1122.0 nM in data set [1] (1 ng/ml), 1116.0 nM in data set [1] (10 ng/ml) and 1313.3 nM in data set [1] (100 ng/ml).

Regarding `NCCCC[C@H](NC(=O)[C@@H](N)CCC(=O)O)C(=O)N[C@@H](CC(N)=O)C(=O)N[C@@H](CC(=O)O)C(=O)O` [Peptide P7, EKND] (H-EKND-OH; N-terminus and C-terminus assumed), the “Mean ATP content in μHF” value in data set [1] (1 ng/ml) was determined as 1275.4 nM; in data set [1] (10 ng/ml) it was 1243.9 nM; in data set [1] (100 ng/ml) it was 1258.8 nM.

As to `N=C(N)NCCC[C@H](NC(=O)[C@@H](N)CC(=O)O)C(=O)N[C@@H](CC(=O)O)C(=O)N[C@@H](CCC(=O)O)C(=O)O` [Peptide P8, DRDE] (H-DRDE-OH; N-terminus and C-terminus assumed), the “Mean ATP content in μHF” value in data set [1] (1 ng/ml) is 1148.5 nM; in data set [1] (10 ng/ml), 1155.5 nM; in data set [1] (100 ng/ml), 1229.3 nM.

For the compound `NCCCC[C@H](NC(=O)[C@@H](N)CC(=O)O)C(=O)N[C@@H](CO)C(=O)N[C@@H](CCC(=O)O)C(=O)O` [Peptide P9, DKSE] (H-DKSE-OH; N-terminus and C-terminus assumed), the “Mean ATP content in μHF” value came to 1521.4 nM in data set [1] (1 ng/ml), 1273.6 nM in data set [1] (10 ng/ml) and 1469.4 nM in data set [1] (100 ng/ml).

In the case of `CC(C)[C@H](NC(=O)[C@H](CCCNC(=N)N)NC(=O)[C@@H](N)CC(=O)O)C(=O)N[C@@H](CCC(=O)O)C(=O)O` [Peptide P10, DRVE] (H-DRVE-OH; N-terminus and C-terminus assumed), the “Mean ATP content in μHF” value came to 1727.8 nM in data set [1] (1 ng/ml), 1706.1 nM in data set [1] (10 ng/ml) and 1329.1 nM in data set [1] (100 ng/ml). Further, in data set [1], the “ATP content relative to threshold (50% of negative control)” value was “over the threshold”.

Turning to `C[C@@H](O)[C@H](NC(=O)[C@H](CCCNC(=N)N)NC(=O)[C@@H](N)CC(=O)O)C(=O)N[C@@H](CC(=O)O)C(=O)O` [Peptide P11, DRTD] (H-DRTD-OH; N-terminus and C-terminus assumed), the “Mean ATP content in μHF” value came to 463.1 nM in data set [1] (1 ng/ml), 447.0 nM in data set [1] (10 ng/ml) and 149.0 nM in data set [1] (100 ng/ml). In addition, the “ATP content relative to threshold (50% of negative control)” value in data set [1] was “under-threshold”.

With `CC[C@H](C)[C@H](N)C(=O)N[C@@H](CCC(=O)O)C(=O)N[C@@H](CCCCN)C(=O)N[C@H](C(=O)O)C(C)C` [Peptide P12, IEKV] (H-IEKV-OH; N-terminus and C-terminus assumed), the “Mean ATP content in μHF” value in data set [1] (1 ng/ml) turned out to be 435.7 nM; in data set [1] (10 ng/ml), 562.8 nM; in data set [1] (100 ng/ml), 370.0 nM. For the same compound, the “ATP content relative to threshold (50% of negative control)” value in data set [1] was “under-threshold”.

For `CC(C)[C@H](NC(=O)[C@H](CCCNC(=N)N)NC(=O)[C@@H](N)CC(=O)O)C(=O)O` [Peptide P13, DRV] (H-Asp-Arg-Val-OH), the “Mean ATP content in μHF” value in data set [1] (1 ng/ml) came to 576.0 nM; in data set [1] (10 ng/ml) it was 516.6 nM; in data set [1] (100 ng/ml) it was 404.1 nM. Also, the “ATP content relative to threshold (50% of negative control)” value in data set [1] is reported as “under-threshold”.

Take Fibroblast Growth Factor 18 [FGF18]: the “Effect on FGF7 expression after TGFβ1” value in data set [2] (setting [6]) is “further down-regulation”. In addition, the “Effect on WNT5b expression after TGFβ1” value in data set [3] is recorded as “decrease”. Besides, the “Mean ATP content in μHF” value in data set [1] (100 ng/ml) came to 1560.3 nM. For the same compound, the “Effect in enhancing the down regulation of anagen markers” value in data set [4] is reported as “dose-dependent effect”. Moreover, in data set [5] (setting [6]), the “Effect on CCND1 expression after TGFβ1” value is “further down-regulation”.

Regarding RTGQYK [Peptide P2, RTGQYK], the entries for the “Mean ATP content in μHF” value in data set [1] (1 ng/ml), in data set [1] (10 ng/ml) and in data set [1] (100 ng/ml) were 1522.4 nM, 1838.6 nM and 1687.8 nM, respectively.

On to “Transforming Growth Factor Beta 1 [TGFβ1]”, for which the “Effect on expression of FGF7 versus CN” value in data set [2] (TGFβ1 10 ng/ml, 72H) is “reduced”. Further, the “Effect on expression of CCND1 versus CN” value in data set [5] (TGFβ1 10 ng/ml, 72H) is recorded as “reduced”.

The values are drawn from patent US12139555B2, “Peptides and compositions for inhibiting hair growth” (RODAN & FIELDS, LLC, priority 2019, dated 2024).
